Experimental data as given in the supplement of paper PMC10307832.

Legend:
Test in all cases: relative viability (nuclei count vs DMSO), 5 days (fraction); higher = more cells survive
NCI-H441 = system: NCI-H441
In short: (§1)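 Medians of duplicate plates are given as relative viability. That measure is the nuclei count in treated wells divided by the count in vehicle wells. Counts were taken on 4× images of lung cancer cell lines in 1536-well plates, 5 days after pin-tool dosing the day after seeding with one drug alone or a fixed anchor-drug dose plus five library-drug doses (not always all listed) in √10 steps.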

NCI-H322M = system: NCI-H322M
In short: as §1

NCI-H2347 = system: NCI-H2347
In short: as §1

RERF-LC-KJ = system: RERF-LC-KJ
In short: as §1

NCI-H358 = system: NCI-H358
In short: as §1

NCI-H2228 = system: NCI-H2228
In short: as §1

LCLC-103H = system: LCLC-103H
In short: as §1

NCI-H1755 = system: NCI-H1755
In short: as §1

NCI-H23 = system: NCI-H23
In short: as §1

HCC-827 = system: HCC-827
In short: as §1

NCI-H1793 = system: NCI-H1793
In short: as §1

ChaGo-K-1 = system: ChaGo-K-1
In short: as §1

PC-3 [JPC-3] = system: PC-3 [JPC-3]
In short: as §1

HOP-62 = system: HOP-62
In short: as §1

SW 900 = system: SW 900
In short: as §1

LXF-289 = system: LXF-289
In short: as §1

NCI-H1395 = system: NCI-H1395
In short: as §1

NCI-H596 = system: NCI-H596
In short: as §1

NCI-H2170 = system: NCI-H2170
In short: as §1

NCI-H2126 = system: NCI-H2126
In short: as §1

NCI-H647 = system: NCI-H647
In short: as §1

NCI-H650 = system: NCI-H650
In short: as §1

EPLC-272H = system: EPLC-272H
In short: as §1

NCI-H1651 = system: NCI-H1651
In short: as §1

LOU-NH91 = system: LOU-NH91
In short: as §1

Nc1cccc2c1CN(C1CCC(=O)NC1=O)C2=O (stereo unspecified) [Lenalidomide] + Cc1nc(Nc2ncc(C(=O)Nc3c(C)cccc3Cl)s2)cc(N2CCN(CCO)CC2)n1 [Dasatinib] (partner 0.075 µM)
relative viability (NCI-H441; first compound 0.253 µM): 0.67
relative viability (NCI-H441; first compound 0.8 µM): 0.518
relative viability (NCI-H441; first compound 2.53 µM): 0.648
relative viability (NCI-H441; first compound 8 µM): 0.493
relative viability (NCI-H322M; first compound 0.253 µM): 0.262
relative viability (NCI-H322M; first compound 0.8 µM): 0.279
relative viability (NCI-H322M; first compound 2.53 µM): 0.254
relative viability (NCI-H322M; first compound 8 µM): 0.253
relative viability (NCI-H2347; first compound 0.253 µM): 0.264
relative viability (NCI-H2347; first compound 0.8 µM): 0.365
relative viability (NCI-H2347; first compound 2.53 µM): 0.286
relative viability (NCI-H2347; first compound 8 µM): 0.214
relative viability (RERF-LC-KJ; first compound 0.253 µM): 0.777
relative viability (RERF-LC-KJ; first compound 0.8 µM): 0.746
relative viability (RERF-LC-KJ; first compound 2.53 µM): 0.828
relative viability (RERF-LC-KJ; first compound 8 µM): 0.793
relative viability (NCI-H358; first compound 0.253 µM): 0.196
relative viability (NCI-H358; first compound 0.8 µM): 0.235
relative viability (NCI-H358; first compound 2.53 µM): 0.19
relative viability (NCI-H358; first compound 8 µM): 0.165
relative viability (NCI-H2228; first compound 0.253 µM): 0.444
relative viability (NCI-H2228; first compound 0.8 µM): 0.58
relative viability (NCI-H2228; first compound 2.53 µM): 0.562
relative viability (NCI-H2228; first compound 8 µM): 0.405
relative viability (LCLC-103H; first compound 0.253 µM): 0.442
relative viability (LCLC-103H; first compound 0.8 µM): 0.325
relative viability (LCLC-103H; first compound 2.53 µM): 0.453
relative viability (LCLC-103H; first compound 8 µM): 0.296
relative viability (NCI-H1755; first compound 0.253 µM): 0.404
relative viability (NCI-H1755; first compound 0.8 µM): 0.216
relative viability (NCI-H1755; first compound 2.53 µM): 0.428
relative viability (NCI-H1755; first compound 8 µM): 0.33
relative viability (NCI-H23; first compound 0.253 µM): 0.857
relative viability (NCI-H23; first compound 0.8 µM): 0.543
relative viability (NCI-H23; first compound 2.53 µM): 0.97
relative viability (NCI-H23; first compound 8 µM): 0.687
relative viability (HCC-827; first compound 0.253 µM): 0.291
relative viability (HCC-827; first compound 0.8 µM): 0.416
relative viability (HCC-827; first compound 2.53 µM): 0.341
relative viability (HCC-827; first compound 8 µM): 0.312
relative viability (NCI-H1793; first compound 0.253 µM): 0.349
relative viability (NCI-H1793; first compound 2.53 µM): 0.412
relative viability (NCI-H1793; first compound 8 µM): 0.212
relative viability (ChaGo-K-1; first compound 0.253 µM): 0.565
relative viability (ChaGo-K-1; first compound 0.8 µM): 0.495
relative viability (ChaGo-K-1; first compound 2.53 µM): 0.677
relative viability (ChaGo-K-1; first compound 8 µM): 0.595
relative viability (PC-3 [JPC-3]; first compound 0.253 µM): 1
relative viability (PC-3 [JPC-3]; first compound 0.8 µM): 0.901
relative viability (PC-3 [JPC-3]; first compound 2.53 µM): 1.08
relative viability (PC-3 [JPC-3]; first compound 8 µM): 1.04
relative viability (HOP-62; first compound 0.253 µM): 0.67
relative viability (HOP-62; first compound 0.8 µM): 0.615
relative viability (HOP-62; first compound 2.53 µM): 0.79
relative viability (HOP-62; first compound 8 µM): 0.583
relative viability (SW 900; first compound 0.253 µM): 0.498
relative viability (SW 900; first compound 2.53 µM): 0.606
relative viability (SW 900; first compound 8 µM): 0.828
relative viability (LXF-289; first compound 0.253 µM): 0.235
relative viability (LXF-289; first compound 0.8 µM): 0.347
relative viability (LXF-289; first compound 2.53 µM): 0.234
relative viability (LXF-289; first compound 8 µM): 0.213
relative viability (NCI-H1395; first compound 0.253 µM): 0.428
relative viability (NCI-H1395; first compound 0.8 µM): 0.383
relative viability (NCI-H1395; first compound 2.53 µM): 0.392
relative viability (NCI-H1395; first compound 8 µM): 0.367
relative viability (NCI-H596; first compound 0.253 µM): 0.644
relative viability (NCI-H596; first compound 2.53 µM): 0.655
relative viability (NCI-H596; first compound 8 µM): 0.505
relative viability (NCI-H2170; first compound 0.253 µM): 0.547
relative viability (NCI-H2170; first compound 0.8 µM): 0.47
relative viability (NCI-H2170; first compound 2.53 µM): 0.571
relative viability (NCI-H2170; first compound 8 µM): 0.454
relative viability (NCI-H2126; first compound 0.253 µM): 0.661
relative viability (NCI-H2126; first compound 0.8 µM): 0.559
relative viability (NCI-H2126; first compound 2.53 µM): 0.678
relative viability (NCI-H2126; first compound 8 µM): 0.479
relative viability (NCI-H647; first compound 0.253 µM): 0.14
relative viability (NCI-H647; first compound 0.8 µM): 0.176
relative viability (NCI-H647; first compound 2.53 µM): 0.319
relative viability (NCI-H647; first compound 8 µM): 0.129
relative viability (NCI-H650; first compound 0.253 µM): 0.459
relative viability (NCI-H650; first compound 2.53 µM): 0.474
relative viability (NCI-H650; first compound 8 µM): 0.355
relative viability (EPLC-272H; first compound 0.253 µM): 0.379
relative viability (EPLC-272H; first compound 0.8 µM): 0.358
relative viability (EPLC-272H; first compound 2.53 µM): 0.321
relative viability (EPLC-272H; first compound 8 µM): 0.235
relative viability (NCI-H1651; first compound 0.253 µM): 0.386
relative viability (NCI-H1651; first compound 0.8 µM): 0.419
relative viability (NCI-H1651; first compound 2.53 µM): 0.617
relative viability (NCI-H1651; first compound 8 µM): 0.375
relative viability (LOU-NH91; first compound 0.253 µM): 0.558
relative viability (LOU-NH91; first compound 0.8 µM): 0.435
relative viability (LOU-NH91; first compound 2.53 µM): 0.555
relative viability (LOU-NH91; first compound 8 µM): 0.456
